Key:
[1] = literature report; cited from earlier work
[2] = physchem; format: physicochemical; conditions: for half-life: buffer
Method: These studies were performed for Compound 1 at two pH values: 4.6 and 7.4, and compared to triazene drug dacarbazine (DTIC). These chosen pHs mimic relatively acidic cancer intracellular (pH 4.6) and slightly basic physiological (pH 7.4) environments.
(§1) The results for DTIC are consistent with the reported stability of the control drug in various hydrolytic media. In addition, Compound 1 decomposition has been studied by hepatic cytochrome P450 induction in hepatocellular carcinoma HepG2 cells using LC-MS (FIG. 1D). […] The decomposition of Compound 1 was examined in cell medium and in cell lysate, while the identification of metabolites was carried out solely in cell lysate.

[3] = system: hepatocellular carcinoma HepG2 cells; assay: Decomposition and metabolite detection in HepG2 cells (medium versus cell lysate), LC-MS; format: in vitro ADME
Method: as §1
It is assumed that this metabolite is the result of oxidation of Compound 1 by hepatic cytochrome P450 and subsequent degradation of two dimethyl triazene tethers in agreement with the mechanism of action of dacarbazine. The observed stability of Compound 1 in PBS potentiates its pharmacological utility during circulation in blood. Therefore, it is concluded that the stability of Compound 1 is sufficient for proceeding to animal models.

[4] = system: A172 GBM cells; assay: Intracranial A172 GBM xenograft model in nude mice (weight, survival, histopathology); conditions: for brain structure in brain sections / tumor area, tumor distribution and invasion in brain sections: H&E stained brain sections at termination; for brain structure in brain sections: FIG. 4; for brain structure in brain sections / tumor area, tumor distribution and invasion in brain sections / body weight gain of tumor-bearing mice / survival of tumor-bearing mice: Compound 1 50 mg/kg, TMZ 25 mg/kg; for body weight gain of tumor-bearing mice / survival of tumor-bearing mice: i.p. once daily, five injections; for body weight gain of tumor-bearing mice: FIG. 2; for survival of tumor-bearing mice: FIG. 3A; for tolerability to treatment: mice bearing GBM tumors, reflected by body weight and survival
Method: The efficacy of Compound 1 in inhibition of intracranial malignant brain glioblastoma growth and survival in nude mice was evaluated using nude mice that were implanted with 5×10^5 A172 GBM cells in the right striatum, followed by consequent once daily five intraperitoneal injections with the vehicle, TMZ (25 mg/kg) and Compound 1 (50 mg/kg), on the tenth day after glioblastoma implantation.
Mice brains were collected at termination day determined by appearance of severe clinical signs within tumor progression and invasion in brain tissue. Brains were fixed with 4% PFA, paraffin embedded and serially cut in to 5 μm. Three slides within a distance of 100 μm apart were sampled for each brain, and stained with hematoxyline-eosin dyes (H&E). Tumor area, distribution and invasion in to brain tissue were observed under light microscopy.

[5] = pH 7.4; cited from earlier work
[6] = listed as DKP-dimethyltriazene conjugate

NCC(=O)CCC(=O)O [5-aminolevulinic acid]
BBB permeability [1]: did not show permeability

CN(C)/N=N/c1ccc(C[C@H]2C(=O)N(C)[C@@H](Cc3ccc(/N=N/N(C)C)cc3)C(=O)N2C)cc1 [Compound 1, (3S,6S)-3,6-bis(4-((E)-3,3-dimethyltriaz-1-en-1-yl)benzyl)-1,4-dimethylpiperazine-2,5-dione]
half-life ([2]; pH 4.6): 4.8 h | stability in PBS buffer ([2]; pH 7.4): sufficient stability | decomposition in cell medium ([3]; HepG2, incubation in cell medium, FIG. 1C): continuous decomposition | accumulation/decomposition in cell lysate ([3]; HepG2 cell lysate, FIG. 1C): gradually accumulated within an hour of incubation and decomposed subsequently | main metabolite detected in cell lysate ([3]; HepG2 cell lysate, LC-MS, FIG. 1D): containing monomethyl triazene (MTIC like) and aniline (AIC like) groups | brain structure in brain sections [4]: normal brain structure | tumor area, tumor distribution and invasion in brain sections [4]: noticeable reduction | body weight gain of tumor-bearing mice [4]: normal weight gain | body weight gain of tumor-bearing mice [4, 6]: no weight loss | survival of tumor-bearing mice [4]: prominent effect on tumor bearing mice survival rate | survival of tumor-bearing mice [4, 6]: superior activity compared to TMZ in overall survival | tolerability to treatment [4]: good tolerability

CN(C)/N=N/c1[nH]cnc1C(N)=O [DTIC, dacarbazine, reference compound]
half-life ([2]; pH 4.6): 5.1 h | half-life ([2]; pH 7.4): 10.2 h

Cn1nnc2c(C(N)=O)ncn2c1=O [TMZ, Temozolomide, reference compound]
plasma half-life [5]: 1.8 h | brain structure in brain sections [4]: both lateral and third ventricles were significantly enlarged | tumor area, tumor distribution and invasion in brain sections [4]: noticeable reduction | body weight gain of tumor-bearing mice [4]: Significant body weight gain reduction | tolerability to treatment [4]: relatively toxic and poorly tolerable

O=C(O)C1CCCNC1 (centres unmarked) [nipecotic acid]
BBB permeability [1]: did not show permeability

NCCCC(=O)O [γ-aminobutyric acid]
BBB permeability [1]: did not show permeability

N-Me-Phe-(N-Me-Phe)3-CONH2
BBB permeability [1]: High BBB-permeability

— patent US20210299260A1, “THERAPEUTIC CONJUGATES” (Ariel Scientific Innovations Ltd., priority 2018, published 2021)
